Experimental data reported in patent publication US20250009891A1, “CONJUGATES OF MONOCYCLIC BETA-LACTAMS AND SIDEROPHORE MIMETICS” (UNIVERSITY OF NOTRE DAME DU LAC, priority 2021, published 2025).
In brackets after ≈: the same amount, converted by molar mass. Where two headings read alike, the source gives them in different places.

Experiments:
A. baumannii ATCC 17961 = experiment: In vitro antibacterial assay (MIC); type: cell-based, Acinetobacter baumannii; conditions: duplicate assays
Procedure: (§1) Antibacterial assay results of new aztreonam derivatives (27, 30, 32 and 37), aztreonam (9a) and earlier data of conjugate 23 are shown in Table 1. The assays were performed using iron deficient media appropriate for screening siderophore conjugates as described previously. […] As expected, none of the compounds were active against the Gram-positive S. aureus. […] Of special interest is the significant inhibitory activity against problematic strains of A. baumannii and P. aeruginosa, including cephalosporinase and carbapenemase producers (A. baumannii TCC 17978 pNT320 and ATCC 17978 pNT165, respectively) which are on the World Health Organization (WHO) list of multi-drug resistant (MDR) pathogens of greatest concern.

[1] = test system: A. baumannii ATCC 17978 pNT165 (carbapenemase producing strain); experiment: In vitro antibacterial assay (MIC); type: cell-based, Acinetobacter baumannii; conditions: iron deficient media, duplicate assays
Procedure: as §1

[2] = test system: A. baumannii ATCC 17978 pNT320 (cephalosporinase producing strain); experiment: In vitro antibacterial assay (MIC); type: cell-based, Acinetobacter baumannii; conditions: iron deficient media, duplicate assays
Procedure: as §1

[3] = test system: A. baumannii ATCC BAA 1797; experiment: In vitro antibacterial assay (MIC); type: cell-based, Acinetobacter baumannii; conditions: duplicate assays
Procedure: as §1

C. freundii ATCC 19063 = experiment: In vitro antibacterial assay (MIC); type: cell-based; conditions: iron deficient media, duplicate assays
Procedure: as §1

E. aerogenes X816 = experiment: In vitro antibacterial assay (MIC); type: cell-based; conditions: iron deficient media, duplicate assays
Procedure: as §1

[4] = test system: K. pneumoniae ATCC 8303 X68; experiment: In vitro antibacterial assay (MIC); type: cell-based; conditions: duplicate assays
Procedure: as §1

P. mirabilis X235 = experiment: In vitro antibacterial assay (MIC); type: cell-based; conditions: iron deficient media, duplicate assays
Procedure: as §1

P. aeruginosa 01 = experiment: In vitro antibacterial assay (MIC); type: cell-based, Pseudomonas aeruginosa; conditions: iron deficient media, duplicate assays
Procedure: as §1

P. aeruginosa ARC 3502 = experiment: In vitro antibacterial assay (MIC); type: cell-based, Pseudomonas aeruginosa; conditions: iron deficient media, duplicate assays
Procedure: as §1

P. aeruginosa ISR14-003 = experiment: In vitro antibacterial assay (MIC); type: cell-based, Pseudomonas aeruginosa; conditions: iron deficient media, duplicate assays
Procedure: as §1

P. aeruginosa ISR14-004 = experiment: In vitro antibacterial assay (MIC); type: cell-based, Pseudomonas aeruginosa; conditions: iron deficient media, duplicate assays
Procedure: as §1

P. aeruginosa KW799/wt = experiment: In vitro antibacterial assay (MIC); type: cell-based, Pseudomonas aeruginosa; conditions: iron deficient media, duplicate assays
Procedure: as §1

E. coli DCO = experiment: In vitro antibacterial assay (MIC); type: cell-based, Escherichia coli; conditions: iron deficient media, duplicate assays
Procedure: as §1

Gram-negative bacteria [5] = experiment: Antibacterial activity, summary statements; type: cell-based; conditions: in words; for activity against Gram-negative bacteria that are resistant to aztreonam: iron deficient media
Procedure: as §1

B. dolosa AU0018 = experiment: In vitro antibacterial assay (MIC); type: cell-based
Procedure: as §1

S. aureus SG511 = experiment: In vitro antibacterial assay (MIC); type: cell-based; conditions: iron deficient media, duplicate assays
Procedure: as §1

Gram-negative bacteria [6] = conditions: in words, cited from earlier work
[7] = Acinetobacter baumannii, ATCC17961, iron deficient media
[8] = Acinetobacter baumannii, ATCC17978, A. baumannii ATCC 17978 pNT165, carbapenemase producing
[9] = Acinetobacter baumannii, ATCC17978, A. baumannii ATCC 17978 pNT320, cephalosporinase producing
[10] = Acinetobacter baumannii, BAA1797, iron deficient media
[11] = Citrobacter freundii, ATCC19063, C. freundii ATCC 19063
[12] = Klebsiella aerogenes, X816, E. aerogenes X816
[13] = Klebsiella pneumoniae, ATCC8303, iron deficient media
[14] = Proteus mirabilis, X235, P. mirabilis X235
[15] = Pseudomonas aeruginosa, 01, P. aeruginosa 01
[16] = Pseudomonas aeruginosa, ARC3502, P. aeruginosa ARC 3502, read-out: MIC
[17] = Pseudomonas aeruginosa, ISR14003, P. aeruginosa ISR14-003, read-out: MIC
[18] = Pseudomonas aeruginosa, ISR14004, P. aeruginosa ISR14-004, read-out: MIC
[19] = Pseudomonas aeruginosa, KW799/WT
[20] = A. baumannii ATCC 17978 pNT320, cephalosporinase producing
[21] = P. aeruginosa ISR14-004, read-out: MIC

Row | Compound | MIC (A. baumannii ATCC 17961; [7]) | MIC [1, 8] | MIC [2, 9] | MIC [3, 10] | MIC (C. freundii ATCC 19063; [11]) | MIC (E. aerogenes X816; [12]) | MIC [4, 13] | MIC (P. mirabilis X235; [14]) | MIC (P. aeruginosa 01; [15]) | MIC (P. aeruginosa ARC 3502; [16]) | MIC (P. aeruginosa ISR14-003; [17]) | MIC (P. aeruginosa ISR14-004; [18]) | MIC (P. aeruginosa KW799/wt; [19]) | MIC (E. coli DCO; Escherichia coli) | activity compared to bis-catechol conjugate 23 (Gram-negative bacteria [5]) | activity against Gram-negative bacteria that are resistant to aztreonam (Gram-negative bacteria [5]) | MIC [2, 20] | MIC (E. aerogenes X816; E. aerogenes X816) | MIC (P. aeruginosa KW799/wt) | MIC (S. aureus SG511; Staphylococcus aureus) | also measured
1 | C[C@H]1[C@H](NC(=O)/C(=N\OC(C)(C)C(=O)NCCNC(=O)CN(CCCCNC(=O)c2ccc(O)c(O)c2Cl)C(=O)c2ccc(O)c(O)c2Cl)c2csc(N)n2)C(=O)N1S(=O)(=O)O [Compound 37] | 0.8 µM (≈ 0.757 µg/mL) | 25 µM (≈ 23.7 µg/mL) | 0.4 µM (≈ 0.379 µg/mL) | 0.8 µM (≈ 0.757 µg/mL) | < 0.025 µM | 0.8 µM (≈ 0.757 µg/mL) | 0.2 µM (≈ 0.189 µg/mL) | < 0.025 µM | 1.2 µM (≈ 1.14 µg/mL) | 4.5 µM (≈ 4.26 µg/mL) | 0.4 µM (≈ 0.379 µg/mL) | 0.2 µM (≈ 0.189 µg/mL) | 0.2 µM (≈ 0.189 µg/mL) | 0.4 µM (≈ 0.379 µg/mL) | comparable to or better than | notably and unexpectedly active |  |  |  |  | 
2 | CCN(C(C)C)C(C)C.C[C@H]1[C@H](NC(=O)/C(=N\OC(C)(C)C(=O)NOCC(=O)O)c2csc(N)n2)C(=O)N1S(=O)(=O)O [Compound 32, (Z)-2-(2-Aminothiazol-4-yl)-5,5-dimethyl-1-(((2S,3S)-2-methyl-4-oxo-1-sulfoazetidin-3-yl)amino)-1,6-dioxo-4,8-dioxa-3,7-diazadec-2-en-10-oic acid DIPEA salt] |  |  |  |  |  |  |  |  |  |  |  |  |  |  |  |  | >25 µM | 3 µM | 25 µM |  | MIC (A. baumannii ATCC 17961; iron deficient media): >25 µM; MIC ([3]; iron deficient media): >25 µM; MIC (B. dolosa AU0018; B. dolosa AU0018, iron deficient media, duplicate assays): >25/(>25) μM; MIC (C. freundii ATCC 19063; C. freundii ATCC 19063): 3 µM; MIC ([4]; iron deficient media): 0.8 µM; MIC (P. mirabilis X235; P. mirabilis X235): 0.05 µM; MIC (S. aureus SG511): >25 µM; MIC (P. aeruginosa ARC 3502; P. aeruginosa ARC 3502): >25/(>25) μM; MIC (P. aeruginosa ISR14-003; P. aeruginosa ISR14-003): >25/(>25) μM; MIC (P. aeruginosa ISR14-004; P. aeruginosa ISR14-004): >25/(25) μM; MIC (E. coli DCO): 1.6 µM; activity compared to aztreonam (9a) (Gram-negative bacteria [5]): activity comparable to that of aztreonam
3 | C[C@H]1[C@H](NC(=O)/C(=N\OC(C)(C)C(=O)O)c2csc(N)n2)C(=O)N1S(=O)(=O)O [Aztreonam 9a, aztreonam, reference compound] | > 25 µM | > 25 µM | > 25 µM | > 25 µM |  | 1.6 µM (≈ 0.697 µg/mL) | 0.2 µM (≈ 0.0871 µg/mL) |  |  | > 25 µM |  |  |  |  |  |  |  | 0.8 µM (≈ 0.348 µg/mL) | 3 µM (≈ 1.31 µg/mL) | > 25 µM | MIC (B. dolosa AU0018; Burkholderia dolosa, B. dolosa AU0018, iron deficient media, duplicate assays, read-out: MIC): > 25 µM; MIC (P. aeruginosa ISR14-004; [21]): 6 µM (≈ 2.61 µg/mL); activity against problematic Gram-negative bacteria (Gram-negative bacteria [6]; including carbapenemase and cephalosporinase producing strains of P. aeruginosa and A. baumannii): not active
4 | CC1(C)[C@H](NC(=O)/C(=N\OCc2cc(=O)c(O)cn2O)c2csc(N)n2)C(=O)N1OS(=O)(=O)O [BAL 30072] |  |  |  |  |  |  |  |  |  |  |  |  |  |  |  |  |  |  |  |  | in vitro activity (Gram-negative bacteria [6]; compounds without free carboxylic acids): retained potent in vitro activity
5 | C[C@H]1[C@H](NC(=O)/C(=N\OC(C)(C)C(=O)NCCNC(=O)CN(CCCCNC(=O)c2cccc(O)c2O)C(=O)c2cccc(O)c2O)c2csc(N)n2)C(=O)N1S(=O)(=O)O [Compound 27, (2S,3S)-3-((Z)-18-(2-Aminothiazol-4-yl)-7-(2,3-dihydroxybenzoyl)-1-(2,3-dihydroxy-phenyl)-15,15-dimethyl-1,9,14-trioxo-16-oxa-2,7,10,13,17-pentaazanonadec-17-en-19-amido)-2-methyl-4-oxoazetidine-1-sulfonic acid] | 0.8 µM (≈ 0.702 µg/mL) | 6 µM (≈ 5.27 µg/mL) | 1.6 µM (≈ 1.4 µg/mL) | 3 µM (≈ 2.63 µg/mL) | 0.4 µM (≈ 0.351 µg/mL) | 0.05 µM (≈ 0.0439 µg/mL) | 0.05 µM (≈ 0.0439 µg/mL) | < 0.013 µM | 0.8 µM (≈ 0.702 µg/mL) | 0.8 µM (≈ 0.702 µg/mL) | 0.8 µM (≈ 0.702 µg/mL) | 0.4 µM (≈ 0.351 µg/mL) |  | 0.025 µM (≈ 0.0219 µg/mL) | comparable to or better than | notably and unexpectedly active | 0.8 µM (≈ 0.702 µg/mL) |  |  | > 25 µM | MIC ([1]; A. baumannii ATCC 17978 pNT165, carbapenemase producing): 6.25 µM (≈ 5.49 µg/mL); MIC (B. dolosa AU0018; Burkholderia dolosa, AU0018): > 25 µM; MIC (P. aeruginosa 01; P. aeruginosa 01): 0.6 µM (≈ 0.527 µg/mL); MIC (P. aeruginosa ARC 3502; P. aeruginosa ARC 3502, read-out: MIC): 1.6 µM (≈ 1.4 µg/mL); MIC (P. aeruginosa ISR14-003; P. aeruginosa ISR14-003, read-out: MIC): 0.4 µM (≈ 0.351 µg/mL); MIC (P. aeruginosa ISR14-004; [21]): 0.2 µM (≈ 0.176 µg/mL)
6 | C[C@H]1[C@H](NC(=O)/C(=N\OC(C)(C)C(=O)NOCC(=O)NCCNC(=O)CN(CCCCNC(=O)c2cccc(O)c2O)C(=O)c2cccc(O)c2O)c2csc(N)n2)C(=O)N1S(=O)(=O)O [Compound 30, (2S,3S)-3-((Z)-22-(2-Aminothiazol-4-yl)-7-(2,3-dihydroxybenzoyl)-1-(2,3-dihydroxyphenyl)-19,19-dimethyl-1,9,14,18-tetraoxo-16,20-dioxa-2,7,10,13,17,21-hexaazatricos-21-en-23-amido)-2-methyl-4-oxoazetidine-1-sulfonic acid] | 0.8 µM (≈ 0.761 µg/mL) |  | 3 µM (≈ 2.85 µg/mL) | 1.6 µM (≈ 1.52 µg/mL) | 0.4 µM (≈ 0.38 µg/mL) | 0.05 µM (≈ 0.0475 µg/mL) | 0.05 µM (≈ 0.0475 µg/mL) | < 0.013 µM | 0.8 µM (≈ 0.761 µg/mL) |  | 0.8 µM (≈ 0.761 µg/mL) |  | 0.8 µM (≈ 0.761 µg/mL) | 0.025 µM (≈ 0.0238 µg/mL) | comparable to or better than | notably and unexpectedly active | 1.6 µM (≈ 1.52 µg/mL) |  | 0.4 µM (≈ 0.38 µg/mL) | > 25 µM | MIC (B. dolosa AU0018; Burkholderia dolosa, AU0018): > 25 µM; MIC (P. aeruginosa 01; P. aeruginosa 01): 0.4 µM (≈ 0.38 µg/mL)
